Assay results reported in patent publication US9669003B2, “Use of flavone and flavanone derivatives in preparation of sedative and hypnotic drugs” (priority 2012, dated 2017).
Marks after values point to notes of the source that are not given here.

Legend:
Type in all cases: in vivo
Kunming mice [1] = assay: Influence on hypnosis effect with pentobarbital sodium doses below the threshold (25 mg/kg i.p.); conditions: pentobarbital sodium 25 mg/kg i.p. 60 min later, sleep observed in 30 min, n = 10
Summary of the method: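 Percentage of mice sleeping within 30 min after subthreshold pentobarbital sodium (25 mg/kg i.p.), defined by loss of righting reflex over 1 min, analysed by χ2. Compound in 0.5% CMC-Na given intragastrically at 25/50/100 mg/kg 60 min before; groups of 10 Kunming mice, both sexes.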

Kunming mice [2] = assay: Influence on autonomic activity of normal mice (ZIL-2 mice autonomic activity meter, counts within 10 min); conditions: intragastric, x ± s, n = 10; for Times of activities in 1 h after drug administration/10 min: 1 h after administration; for Times of activities in 2 h after drug administration/10 min: 2 h after administration; for Times of activities in 24 h after drug administration/10 min: 24 h after administration
Summary of the method: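 Activity counts during a 10-min window were taken at 1, 2 and 24 h after dosing in groups of 10 mixed-sex Kunming mice. Compounds were given in 0.5% CMC-Na at 25, 50 or 100 mg/kg. Statistics used Levene's homogeneity test, ANOVA and Dunnett's multiple comparisons.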

Kunming mice [3] = assay: Influence on hypnosis effect with pentobarbital sodium doses at the threshold (50 mg/kg i.p.); conditions: pentobarbital sodium 50 mg/kg i.p. 60 min later, x ± s, n = 10
Summary of the method: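 Pentobarbital sodium (0.3%, 50 mg/kg i.p.) injected 60 min after a single intragastric dose (25, 50, 100 mg/kg, 0.5% CMC-Na vehicle) in Kunming mice, 10 per group, sexes balanced. Onset and length of sleep (righting reflex lost over 1 min) analysed by ANOVA; sleeping incidence by χ2 test.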

[4] = test drug 25 mg/kg intragastric single dose
[5] = test drug 50 mg/kg intragastric single dose
[6] = test drug 100 mg/kg intragastric single dose
[7] = 25 mg/kg intragastric single dose
[8] = 50 mg/kg intragastric single dose
[9] = 100 mg/kg intragastric single dose

Row | SMILES | Number of sleeping animals (Kunming mice [1]; [4]) | rate of sleeping (%) (Kunming mice [1]; [4]) | Number of sleeping animals (Kunming mice [1]; [5]) | rate of sleeping (%) (Kunming mice [1]; [5]) | Number of sleeping animals (Kunming mice [1]; [6]) | rate of sleeping (%) (Kunming mice [1]; [6]) | Times of activities in 1 h after drug administration/10 min (Kunming mice [2]; 25 mg/kg) | Times of activities in 2 h after drug administration/10 min (Kunming mice [2]; 25 mg/kg) | Times of activities in 24 h after drug administration/10 min (Kunming mice [2]; 25 mg/kg) | Times of activities in 1 h after drug administration/10 min (Kunming mice [2]; 50 mg/kg) | Times of activities in 2 h after drug administration/10 min (Kunming mice [2]; 50 mg/kg) | Times of activities in 24 h after drug administration/10 min (Kunming mice [2]; 50 mg/kg) | Times of activities in 1 h after drug administration/10 min (Kunming mice [2]; 100 mg/kg) | Times of activities in 2 h after drug administration/10 min (Kunming mice [2]; 100 mg/kg) | Times of activities in 24 h after drug administration/10 min (Kunming mice [2]; 100 mg/kg) | duration of sleep (Kunming mice [3]; [7]) [min] | time to sleep (Kunming mice [3]; [7]) [min] | duration of sleep (Kunming mice [3]; [8]) [min] | time to sleep (Kunming mice [3]; [8]) [min] | duration of sleep (Kunming mice [3]; [9]) [min] | further results
1 | C=Cc1c(C#N)cc(-c2cc(=O)c3c(C=CC)cc(Cc4ccccc4)cc3o2)cc1[N+](=O)[O-] [Example 20] | 4 | 40* % | 6 | 60** % | 6 | 60** % | 320.3 ± 49.7 /10 min | 293.6 ± 45.1 /10 min | 317.4 ± 79.6 /10 min | 283.7 ± 51.3 /10 min | 278.6 ± 47.5 /10 min | 305.2 ± 75.4 /10 min | 267.2 ± 55.3 /10 min | 250.3 ± 47.1 /10 min | 305.7 ± 79.7 /10 min | 38.67 ± 21.87 | 4.33 ± 1.58 | 66.34 ± 22.15 | 3.36 ± 1.20 | 68.09 ± 29.56 | time to sleep (Kunming mice [3]; [9]): 3.18 ± 1.10 min
2 | COc1cc(OC)c2c(c1)OC(c1cc(OC)c(OC)c(OC)c1OC)CC2=O (stereo not drawn) [Example 66, 5,7,2′,3′,4′,5′-hexa methoxyl-flavanone] | 3 | 30% | 5 | 50** % | 8 | 80*** % | 307.7 ± 54.6 /10 min | 281.3 ± 31.2 /10 min | 314.7 ± 66.7 /10 min | 275.8 ± 44.3 /10 min | 270.7 ± 46.3 /10 min | 314.1 ± 81.4 /10 min | 258.4 ± 40.3 /10 min | 243.9 ± 41.2 /10 min | 334.7 ± 62.9 /10 min | 23.81 ± 25.29 | 5.37 ± 2.12 | 27.79 ± 26.78 | 5.12 ± 2.65 | 61.44 ± 47.33 | time to sleep (Kunming mice [3]; [9]): 3.14 ± 1.10 min
3 | COc1cc(C2Oc3c(cc(OC)c(OC)c3OC)C(=O)C2OC)c(O)c(OC)c1OC (stereo not drawn) [Example 69, 6′-hydroxyl-3,6,7,8,3′,4′,5′-hepta methoxyl-flavanone] | 3 | 30% | 5 | 50* % | 7 | 70** % | 322.3 ± 51.3 /10 min | 278.3 ± 40.3 /10 min | 299.1 ± 80.7 /10 min | 298.0 ± 41.5 /10 min | 251.7 ± 39.4 /10 min | 309.1 ± 91.0 /10 min | 289.3 ± 50.7 /10 min | 235.8 ± 47.4 /10 min | 320.4 ± 80.4 /10 min | 31.77 ± 22.78 | 4.98 ± 1.88 | 57.73 ± 18.49 | 4.27 ± 1.62 | 64.09 ± 31.23 | time to sleep (Kunming mice [3]; [9]): 3.87 ± 1.78 min
